From US6197535A, “Methods for purifying and assaying a conus γ-carboxylase” (University of Utah Research Foundation, priority 1999, dated 2001)
No end group written: not given here.

Columns and labels:
Type in all cases: biochemical
[1] = test system: Conus γ-glutamyl carboxylase (Conus radiatus venom duct microsomes); settings: for IC50: read-out: apparent IC50; for Km: read-out: apparent Km
[2] = target: T1, bovine microsomal γ-glutamyl carboxylase (Bos taurus, UniProt Q07175)
T1 construct: For experiments with bovine microsomes, 380 μg of microsomal protein was present in each reaction; from tissue; host or cells: bovine microsomes, gift of Dr. D. W. Stafford
T1 sequence (Q07175 1-758): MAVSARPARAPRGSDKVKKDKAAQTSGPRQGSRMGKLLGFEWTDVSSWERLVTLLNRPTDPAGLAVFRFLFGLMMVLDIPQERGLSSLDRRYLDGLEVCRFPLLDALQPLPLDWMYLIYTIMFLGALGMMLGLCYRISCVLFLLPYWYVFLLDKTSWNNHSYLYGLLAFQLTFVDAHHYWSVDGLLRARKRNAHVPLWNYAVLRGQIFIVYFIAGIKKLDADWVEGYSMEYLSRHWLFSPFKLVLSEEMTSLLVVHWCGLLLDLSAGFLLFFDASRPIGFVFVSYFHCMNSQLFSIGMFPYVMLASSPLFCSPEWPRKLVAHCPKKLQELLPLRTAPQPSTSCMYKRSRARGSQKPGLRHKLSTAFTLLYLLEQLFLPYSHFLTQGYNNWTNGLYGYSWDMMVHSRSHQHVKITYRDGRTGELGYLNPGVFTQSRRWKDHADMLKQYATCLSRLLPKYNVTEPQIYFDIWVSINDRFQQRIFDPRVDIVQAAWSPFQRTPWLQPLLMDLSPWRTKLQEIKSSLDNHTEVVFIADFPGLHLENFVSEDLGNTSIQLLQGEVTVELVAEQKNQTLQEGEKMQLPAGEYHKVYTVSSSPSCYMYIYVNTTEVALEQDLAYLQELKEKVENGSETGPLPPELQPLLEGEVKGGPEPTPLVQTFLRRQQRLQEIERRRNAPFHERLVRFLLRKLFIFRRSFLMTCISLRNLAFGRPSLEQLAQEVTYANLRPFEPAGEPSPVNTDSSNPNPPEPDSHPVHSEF

[3] = test system: Conus γ-carboxylase

ALKAEPVLLQKSAARSTDDN [Pro (-40 to -21)]
effect on the carboxylation of FLEEL or E.ConG [1]: no effect | inhibition of carboxylation of -10.Pro-E.Con-G [1]: did not inhibit | IC50 [1]: > 1000 µM

FLEEL [reference compound]
pmol 14CO2 Incorporated [2]: 249 pmol | pmol 14CO2 Incorporated [1]: 818 pmol | Km [1]: 301 ± 6 µM

GKDRLTQMKRILKQRGNKARFLEEL-NH2 [-20.Pro-FLEEL]
Km [1]: 4 µM

GKDRLTQMKRILKQRGNKARGEEELQENQELIREKSN-NH2 [-20.Pro-E.Con-G]
pmol 14CO2 Incorporated [2]: 3 pmol | substrate quality for γ-carboxylation, mammalian enzyme [2]: extremely poor | pmol 14CO2 Incorporated [1]: 2741 pmol | substrate quality for γ-carboxylation, Conus enzyme [1]: excellent substrate | Km [1]: 28 ± 3 µM | Glu residues carboxylated (Gla analysis of reaction product) [3]: Glu2 was not carboxylated. The rest of the Glu residues were carboxylated, although Glu14 was not efficiently carboxylated

GTGTLDDGGALTERRSADAT [Pro (-60 to -41)]
effect on the carboxylation of FLEEL or E.ConG [1]: no effect | inhibition of carboxylation of -10.Pro-E.Con-G [1]: did not inhibit | IC50 [1]: > 1000 µM

ILKQRGNKARGEEELQENQELIREKSN-NH2 [-10.Pro-E.Con-G]
Km [1]: 1840 ± 109 µM

KSAARSTDDNGKDRLTQMKRILKQRGNKAR [Pro (-30 to -1)]
IC50 [1]: 200 µM
